US20230085307A1, “PYRIDAZINONE COMPOUND AND HERBICIDE” (NISSAN CHEMICAL CORPORATION, priority 2019, published 2023)

Experiments:
rice flat sedge = assay: Test Example 3: herbicidal effect by foliage application, Wagner pot (Table 18, symbol E); assay type: in vivo, rice flat sedge (Cyperus iria); conditions: for herbicidal effect on rice flat sedge (E): 320 g/ha
Outline: (§1)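 Plants were sown in alluvial soil held under 0.1–0.5 cm standing water and grown 14 days in a greenhouse at 25–30 °C. An emulsifiable formulation, water-diluted to the set dose, was then sprayed onto the foliage, and effects were scored three weeks later using previously defined criteria.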

barnyard grass [1] = assay: Test Example 3: herbicidal effect by foliage application, Wagner pot (Table 18, symbol H); assay type: in vivo, barnyard grass (Echinochloa crus-galli); conditions: for herbicidal effect on barnyard grass (H): 320 g/ha
Outline: as §1

Japanese bulrush = assay: Test Example 1: herbicidal activity, application before weed generation under submerged conditions (Table 16, symbol B); assay type: in vivo, Japanese bulrush (Schoenoplectus juncoides); conditions: amount of applied herbicide 320 g/ha
Outline: (§2)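 Emulsion formulation, water-diluted to set dose, was put onto the flooded surface (4 cm depth, alluvial soil) the same day weeds were sown and 2.5-leaf rice transplanted. After 3 weeks at 25-30 °C under glass, each species was rated 0 (≤5% kill) to 5 (≥90% kill).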

green foxtail [2] = assay: Test Example 5: herbicidal effect by foliage application, plastic box (Table 20, symbol G); assay type: in vivo, green foxtail (Setaria viridis); conditions: foliage application, 320 g/ha, three weeks after application
Outline: (§3)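 Plants sown in sterilized diluvial soil and grown 14 days in a greenhouse at 25° C to 30° C, then sprayed on the foliage with the compound's emulsion diluted in water to a predetermined herbicide amount. Injury to weeds and crops scored three weeks after application on a visual rating scale.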

late watergrass = assay: Test Example 1: herbicidal activity, application before weed generation under submerged conditions (Table 16, symbol A); assay type: in vivo, late watergrass (Echinochloa oryzicola); conditions: amount of applied herbicide 320 g/ha
Outline: as §2

southern crabgrass [3] = assay: Test Example 4: herbicidal effect by soil treatment (Table 19, symbol F); assay type: in vivo, southern crabgrass (Digitaria ciliaris); conditions: amount of applied herbicide 320 g/ha
Outline: (§4)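 Three weeks of greenhouse growth at 25° C. to 30° C. followed a uniform surface spray of water-diluted emulsion at a predetermined herbicide amount. Seeds had been sown beforehand under about 1.5 cm of sterilized diluvial soil. Grading followed criteria set out in an earlier test.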

redroot pigweed = assay: Test Example 5: herbicidal effect by foliage application, plastic box (Table 20, symbol N); assay type: in vivo, redroot pigweed (Amaranthus retroflexus); conditions: foliage application, 320 g/ha, three weeks after application
Outline: as §3

southern crabgrass [4] = assay: Test Example 5: herbicidal effect by foliage application, plastic box (Table 20, symbol F); assay type: in vivo, southern crabgrass (Digitaria ciliaris); conditions: foliage application, 320 g/ha, three weeks after application
Outline: as §3

windgrass [5] = assay: Test Example 5: herbicidal effect by foliage application, plastic box (Table 20, symbol L); assay type: in vivo, windgrass (Apera spica-venti); conditions: foliage application, 320 g/ha, three weeks after application
Outline: as §3

wild oat = assay: Test Example 5: herbicidal effect by foliage application, plastic box (Table 20, symbol I); assay type: in vivo, wild oat (Avena fatua); conditions: foliage application, 320 g/ha, three weeks after application
Outline: as §3

green foxtail [6] = assay: Test Example 4: herbicidal effect by soil treatment (Table 19, symbol G); assay type: in vivo, green foxtail (Setaria viridis); conditions: amount of applied herbicide 320 g/ha
Outline: as §4

velvetleaf [7] = assay: Test Example 5: herbicidal effect by foliage application, plastic box (Table 20, symbol M); assay type: in vivo, velvetleaf (Abutilon theophrasti); conditions: foliage application, 320 g/ha, three weeks after application
Outline: as §3

barnyard grass [8] = assay: Test Example 5: herbicidal effect by foliage application, plastic box (Table 20, symbol H); assay type: in vivo, barnyard grass (Echinochloa crus-galli); conditions: foliage application, 320 g/ha, three weeks after application
Outline: as §3

blackgrass = assay: Test Example 5: herbicidal effect by foliage application, plastic box (Table 20, symbol J); assay type: in vivo, blackgrass (Alopecurus myosuroides); conditions: foliage application, 320 g/ha, three weeks after application
Outline: as §3

windgrass [9] = assay: Test Example 4: herbicidal effect by soil treatment (Table 19, symbol L); assay type: in vivo, windgrass (Apera spica-venti); conditions: amount of applied herbicide 320 g/ha
Outline: as §4

velvetleaf [10] = assay: Test Example 4: herbicidal effect by soil treatment (Table 19, symbol M); assay type: in vivo, velvetleaf (Abutilon theophrasti); conditions: amount of applied herbicide 320 g/ha
Outline: as §4

Italian ryegrass = assay: Test Example 4: herbicidal effect by soil treatment (Table 19, symbol K); assay type: in vivo, Italian ryegrass (Lolium multiflorum); conditions: amount of applied herbicide 320 g/ha
Outline: as §4

persian speedwell = assay: Test Example 4: herbicidal effect by soil treatment (Table 19, symbol R); assay type: in vivo, Persian speedwell (Veronica persica); conditions: amount of applied herbicide 320 g/ha
Outline: as §4

[11] = amount of applied herbicide 320 g/ha

Structure (SMILES)	Herbicidal effect, B: Japanese bulrush (Japanese bulrush)	G: green foxtail, herbicidal effect grade (green foxtail [2])	Herbicidal effect, A: late watergrass (late watergrass)	N: redroot pigweed, herbicidal effect grade (redroot pigweed)	F: southern crabgrass, herbicidal effect grade (southern crabgrass [4])	L: windgrass, herbicidal effect grade (windgrass [5])	I: wild oat, herbicidal effect grade (wild oat)	M: velvetleaf, herbicidal effect grade (velvetleaf [7])	H: barnyard grass, herbicidal effect grade (barnyard grass [8])	J: blackgrass, herbicidal effect grade (blackgrass)	herbicidal effect on rice flat sedge (E) (rice flat sedge)	herbicidal effect on barnyard grass (H) (barnyard grass [1])	F: southern crabgrass, herbicidal effect grade (southern crabgrass [3])	G: green foxtail, herbicidal effect grade (green foxtail [6])	L: windgrass, herbicidal effect grade (windgrass [9])	M: velvetleaf, herbicidal effect grade (velvetleaf [10])	K: Italian ryegrass, herbicidal effect grade (Italian ryegrass)	herbicidal effect on green foxtail (G) (green foxtail [2])	herbicidal effect on southern crabgrass (F) (southern crabgrass [4])	herbicidal effect on windgrass (L) (windgrass [5])	other results
CCCC(=O)Oc1c(C)nn(C)c(=O)c1-c1c(-c2ccc(OC(C)C)cc2)sc2cc(F)ccc12 [3-020]	3 (Herbicidal rate of 40% or more and less than 70%)	0 (Herbicidal rate of 5% or less (almost no effect))	3 (Herbicidal rate of 40% or more and less than 70%)	4 (Herbicidal rate of 70% or more and less than 90%)	0 (Herbicidal rate of 5% or less (almost no effect))	0 (Herbicidal rate of 5% or less (almost no effect))	0 (Herbicidal rate of 5% or less (almost no effect))	3 (Herbicidal rate of 40% or more and less than 70%)	2 (Herbicidal rate of 20% or more and less than 40%)	2 (Herbicidal rate of 20% or more and less than 40%)	–	–	–	–	–	–	–	–	–	–	herbicidal effect on E: rice flat sedge (rice flat sedge; [11]): 5 (Herbicidal rate of 90% or more (almost completely withered)); herbicidal effect on H: barnyard grass (barnyard grass [1]; [11]): 4 (Herbicidal rate of 70% or more and less than 90%); herbicidal effect, F: southern crabgrass (southern crabgrass [3]): 0 (Herbicidal rate of 5% or less (almost no effect)); herbicidal effect, G: green foxtail (green foxtail [6]): 0 (Herbicidal rate of 5% or less (almost no effect)); herbicidal effect, L: windgrass (windgrass [9]): 0 (Herbicidal rate of 5% or less (almost no effect)); herbicidal effect, M: velvetleaf (velvetleaf [10]): 0 (Herbicidal rate of 5% or less (almost no effect)); herbicidal effect, K: Italian ryegrass (Italian ryegrass): 0 (Herbicidal rate of 5% or less (almost no effect))
COc1ccccc1-c1sc2cc(OCC3CC3(F)F)ccc2c1-c1c(O)c(C)nn(C)c1=O (stereo not drawn) [3-131]	5 (Herbicidal rate of 90% or more (almost completely withered))	5 (Herbicidal rate of 90% or more (almost completely withered))	5 (Herbicidal rate of 90% or more (almost completely withered))	5 (Herbicidal rate of 90% or more (almost completely withered))	5 (Herbicidal rate of 90% or more (almost completely withered))	5 (Herbicidal rate of 90% or more (almost completely withered))	5 (Herbicidal rate of 90% or more (almost completely withered))	4 (Herbicidal rate of 70% or more and less than 90%)	5 (Herbicidal rate of 90% or more (almost completely withered))	5 (Herbicidal rate of 90% or more (almost completely withered))	5 (Herbicidal rate of 90% or more (almost completely withered))	5 (Herbicidal rate of 90% or more (almost completely withered))	3 (Herbicidal rate of 40% or more and less than 70%)	4 (Herbicidal rate of 70% or more and less than 90%)	3 (Herbicidal rate of 40% or more and less than 70%)	3 (Herbicidal rate of 40% or more and less than 70%)	5 (Herbicidal rate of 90% or more (almost completely withered))	–	–	–	–
COc1cc(F)ccc1-c1sc2cc(C)c(C)cc2c1-c1c(O)c(C)nn(C)c1=O [5-101]	3 (Herbicidal rate of 40% or more and less than 70%)	–	3 (Herbicidal rate of 40% or more and less than 70%)	–	–	–	–	–	–	–	3 (Herbicidal rate of 40% or more and less than 70%)	5 (Herbicidal rate of 90% or more (almost completely withered))	0 (Herbicidal rate of 5% or less (almost no effect))	0 (Herbicidal rate of 5% or less (almost no effect))	0 (Herbicidal rate of 5% or less (almost no effect))	0 (Herbicidal rate of 5% or less (almost no effect))	4 (Herbicidal rate of 70% or more and less than 90%)	4 (Herbicidal rate of 70% or more and less than 90%)	4 (Herbicidal rate of 70% or more and less than 90%)	3 (Herbicidal rate of 40% or more and less than 70%)	herbicidal effect on wild oat (I) (wild oat): 0 (Herbicidal rate of 5% or less (almost no effect)); herbicidal effect on velvetleaf (M) (velvetleaf [7]): 4 (Herbicidal rate of 70% or more and less than 90%); herbicidal effect on barnyard grass (H) (barnyard grass [8]): 3 (Herbicidal rate of 40% or more and less than 70%); herbicidal effect on blackgrass (J) (blackgrass): 4 (Herbicidal rate of 70% or more and less than 90%)
Cc1nn(C)c(=O)c(-c2c(-c3ccc(OC(C)C)cc3)oc3ccc(F)cc23)c1O [9-025]	5 (Herbicidal rate of 90% or more (almost completely withered))	–	5 (Herbicidal rate of 90% or more (almost completely withered))	–	–	–	–	–	–	–	–	–	4 (Herbicidal rate of 70% or more and less than 90%)	5 (Herbicidal rate of 90% or more (almost completely withered))	–	3 (Herbicidal rate of 40% or more and less than 70%)	5 (Herbicidal rate of 90% or more (almost completely withered))	0 (Herbicidal rate of 5% or less (almost no effect))	5 (Herbicidal rate of 90% or more (almost completely withered))	0 (Herbicidal rate of 5% or less (almost no effect))	Herbicidal effect on E (rice flat sedge), foliage application (rice flat sedge; [11]): 5 (Herbicidal rate of 90% or more (almost completely withered)); Herbicidal effect on H (barnyard grass), foliage application (barnyard grass [1]; [11]): 5 (Herbicidal rate of 90% or more (almost completely withered)); R: persian speedwell, herbicidal effect grade (persian speedwell): 4 (Herbicidal rate of 70% or more and less than 90%); herbicidal effect on wild oat (I) (wild oat): 3 (Herbicidal rate of 40% or more and less than 70%); herbicidal effect on velvetleaf (M) (velvetleaf [7]): 5 (Herbicidal rate of 90% or more (almost completely withered)); herbicidal effect on barnyard grass (H) (barnyard grass [8]): 4 (Herbicidal rate of 70% or more and less than 90%); herbicidal effect on blackgrass (J) (blackgrass): 4 (Herbicidal rate of 70% or more and less than 90%)
